Data: patent US20040180394A1, “Assays for inositol phosphates” (priority 2001, published 2004)
Where no end group is shown, it is not given here.

Key:
[1] = system: untransfected T24 cells; assay: Inositol phosphate SPA assay in untransfected T24 cells; assay type: cell-based; settings: 1 mM carbachol
[2] = system: parent T24 cell line; assay: FLIPR intracellular calcium in parent T24 cell line; assay type: cell-based
[3] = system: acetylcholine receptors naturally expressed in HEK293 cells; assay: Inositol phosphate SPA assay in wild-type HEK293 cells; assay type: cell-based, human; settings: 1 mM carbachol, 5 mM LiCl where used (FIG. 9)
Excerpt: See Example 8 for details.

[4] = system: untransfected CHO/NFAT cells; assay: Inositol phosphate assay in untransfected CHO/NFAT cells; assay type: cell-based; settings: untransfected CHO/NFAT cells (FIGS. 7A-D), 10 nM NPFF
Excerpt: There was no response to NPFF in untransfected CHO/NFAT cells (FIGS. 7A-D).

With C[N+](C)(C)CCOC(N)=O [carbachol] as the compound, how does the “response to agonist (inositol phosphates)” value [1] read?
Its value is “no response”.

What about the “rise in intracellular calcium” value [2] of the same compound?
Its value is “no rise in intracellular calcium”.

What about the inositol phosphate level [3] of the same compound?
Its inositol phosphate level is “increase of inositol phosphate”.

“NPFF: agonist used at 10 nM to activate the human neuropeptide FF receptor (FLFQPQRF; ends and bridges not checked; UniProt O15130 69-76, looked up)” was tested. Which “response to agonist (inositol phosphates)” value [4] did it give?
The value was “no response”.
